# Laboratory results taken from article PMC3182149 (Phytochemistry letters, 2011).
# Legend:
# NF-κB p65 = NF-κB p65 (Homo sapiens, UniProt Q04206); experiment: Enzyme-based ELISA NF-κB p65 assay; format: biochemical; settings: inhibition of binding of NF-κB to DNA; Hela nuclear extract
# [1] = tested on: Lu1 human lung cancer cells; experiment: Cytotoxicity assay, Lu1 human lung cancer cells; format: cell-based
# [2] = tested on: panel of three human cancer cells; experiment: Cytotoxicity assay, panel of three human cancer cells; format: cell-based; settings: range over the panel of three human cancer cells
# [3] = tested on: MCF-7 human breast cancer cells; experiment: Cytotoxicity assay, MCF-7 human breast cancer cell line; format: cell-based
# [4] = tested on: LNCaP hormone-dependent prostate cancer cells; experiment: Cytotoxicity assay, LNCaP hormone-dependent prostate cancer cells; format: cell-based, human
# Chain of NF-κB p65 (Q04206 whole entry): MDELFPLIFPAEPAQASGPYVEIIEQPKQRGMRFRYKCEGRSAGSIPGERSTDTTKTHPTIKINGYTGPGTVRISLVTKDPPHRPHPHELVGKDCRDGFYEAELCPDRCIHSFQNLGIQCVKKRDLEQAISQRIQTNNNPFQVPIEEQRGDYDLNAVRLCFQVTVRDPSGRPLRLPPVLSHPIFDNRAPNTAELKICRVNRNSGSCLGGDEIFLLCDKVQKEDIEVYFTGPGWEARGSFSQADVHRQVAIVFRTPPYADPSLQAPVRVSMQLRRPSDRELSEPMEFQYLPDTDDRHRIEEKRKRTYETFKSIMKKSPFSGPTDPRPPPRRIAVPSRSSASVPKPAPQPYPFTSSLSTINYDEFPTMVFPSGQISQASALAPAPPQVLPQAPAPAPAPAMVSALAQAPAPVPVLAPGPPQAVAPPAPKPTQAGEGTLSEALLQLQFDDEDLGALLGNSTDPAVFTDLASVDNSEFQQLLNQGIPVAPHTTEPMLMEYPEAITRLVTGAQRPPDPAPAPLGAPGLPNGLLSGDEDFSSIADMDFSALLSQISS
# Chain of NF-κB p65 (P19838 1-433 partner limits assumed): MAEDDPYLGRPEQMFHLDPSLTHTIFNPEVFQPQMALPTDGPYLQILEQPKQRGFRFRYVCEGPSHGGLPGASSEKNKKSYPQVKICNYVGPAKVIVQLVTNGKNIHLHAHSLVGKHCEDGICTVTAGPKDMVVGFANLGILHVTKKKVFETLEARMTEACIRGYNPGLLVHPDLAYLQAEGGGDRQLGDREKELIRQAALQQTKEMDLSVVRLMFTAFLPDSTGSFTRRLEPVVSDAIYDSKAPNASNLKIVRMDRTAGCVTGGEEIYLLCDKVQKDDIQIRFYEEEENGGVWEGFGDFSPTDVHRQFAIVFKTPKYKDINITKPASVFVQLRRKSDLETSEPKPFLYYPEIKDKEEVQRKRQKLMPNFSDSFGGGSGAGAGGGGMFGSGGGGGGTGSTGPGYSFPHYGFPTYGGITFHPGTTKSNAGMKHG
Compound,ED50 (NF-κB p65),ED50 [1],ED50 values [2],ED50 [3],ED50 [4]
"methyl 3,4,5-O-tricaffeoyl quinate [Compound 4]",10.3 µM,,,,
"COc1ccc([C@@H]2CC(=O)c3c(O)cc(OC)cc3O2)cc1 [Compound 3, (S)-5-hydroxy-7,4′-dimethoxyflavanone]",,4.7 µM,1.1 to 6.7 µM,1.1 µM,6.7 µM
